# Source: paper PMC5741980 (Journal of Experimental Pharmacology, 2017)
# Peptide text beside a SMILES is read from it.
# Legend:
# [1] = molecular target: T1, human V1 receptors (Homo sapiens, UniProt P37288); test: Competitive binding assay, [3H]AVP, CHO-S cell membrane homogenates; details: for affinity (selectivity) for V1 higher than for V2: this study
# [2] = molecular target: T2, human V2 receptors (Homo sapiens, UniProt P30518); test: Competitive binding assay, [3H]AVP, CHO-K1 cell membrane homogenates
# T2 sequence (P30518 whole entry): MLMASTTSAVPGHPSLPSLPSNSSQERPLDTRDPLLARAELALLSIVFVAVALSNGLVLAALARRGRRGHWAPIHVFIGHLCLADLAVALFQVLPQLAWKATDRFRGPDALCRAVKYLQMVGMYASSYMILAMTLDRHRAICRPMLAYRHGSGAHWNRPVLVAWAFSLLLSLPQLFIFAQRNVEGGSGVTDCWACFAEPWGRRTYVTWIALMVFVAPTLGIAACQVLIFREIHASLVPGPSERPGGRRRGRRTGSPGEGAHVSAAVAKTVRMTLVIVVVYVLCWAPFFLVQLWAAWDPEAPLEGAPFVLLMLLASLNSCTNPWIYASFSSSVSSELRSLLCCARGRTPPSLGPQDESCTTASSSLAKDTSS
# [3] = molecular target: T1, human V1 receptors; test: Functional assay, intracellular calcium mobilization; format: cell-based; details: compared with maximal effect of AVP
# [4] = molecular target: T2, human V2 receptors; test: Functional assay, cAMP production; format: cell-based; details: compared with maximal effect of AVP
# [5] = molecular target: T1, human V1 receptors; details: cited from earlier work; for Ki: read-out: mean binding affinity (Ki) for human V1 receptors, human vascular smooth muscle cells
# [6] = molecular target: T1, human V1 receptors; details: intracellular calcium mobilization; cited from earlier work
# [7] = system: rat V1 receptors; details: intracellular calcium mobilization; cited from earlier work
# [8] = system: V1; details: cited from earlier work; for EC50: read-out: EC50 for V1 activation, recombinant system, functional assay
# [9] = system: rat V1 receptors; details: cited from earlier work
# [10] = system: V1 activation; details: rat model of portal hypertension, cited from earlier work
# T1 sequence (P37288 whole entry): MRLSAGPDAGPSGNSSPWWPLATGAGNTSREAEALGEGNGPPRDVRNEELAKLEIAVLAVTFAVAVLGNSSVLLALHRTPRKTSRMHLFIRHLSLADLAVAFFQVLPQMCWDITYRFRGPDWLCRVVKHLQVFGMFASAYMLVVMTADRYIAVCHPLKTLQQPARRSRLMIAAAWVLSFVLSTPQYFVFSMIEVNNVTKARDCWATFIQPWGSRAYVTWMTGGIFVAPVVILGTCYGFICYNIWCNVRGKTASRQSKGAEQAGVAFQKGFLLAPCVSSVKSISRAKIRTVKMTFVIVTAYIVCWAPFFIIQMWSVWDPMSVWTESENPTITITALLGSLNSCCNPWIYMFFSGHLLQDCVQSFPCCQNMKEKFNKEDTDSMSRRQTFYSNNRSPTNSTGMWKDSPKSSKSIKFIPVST
Compound,affinity (selectivity) for V1 higher than for V2 [1],"binding affinity less than that of AVP, V1 receptors ([1]; versus AVP)","binding affinity less than that of AVP, V2 receptors ([2]; versus AVP)",agonist type at V1 receptors [3],agonist type at V2 receptors [4],Ki [5] [nM],mean maximal cell activation at human V1 receptors [6] [%],mean maximal cell activation at rat V1 receptors [7] [%],EC50 [8] [nM],"binding affinity less than that of LVP, V1 receptors ([1]; versus LVP)","binding affinity less than that of LVP, V2 receptors ([2]; versus LVP)",selectivity for V1 receptors higher than for V2 receptors ([5]; Colson et al) [fold],"binding affinity less than that of LVP, human V1 receptors ([5]; versus LVP)",difference in binding versus LVP at rat V1 receptors [9] [fold],mean potency for V1 activation in vasopressor tests [10] [IU×µmol^−1],mean potency less than that of vasopressin ([10]; vasopressor tests),EC50 higher than that for LVP ([8]; versus LVP)
"NCCCC[C@H](NC(=O)[C@@H]1CCCN1C(=O)[C@@H]1CSSC[C@H](N)C(=O)N[C@@H](Cc2ccc(O)cc2)C(=O)N[C@@H](Cc2ccccc2)C(=O)N[C@@H](CCC(N)=O)C(=O)N[C@@H](CC(N)=O)C(=O)N1)C(=O)NCC(N)=O [LVP, [Lys8]-vasopressin]",approximately sixfold,about twofold,about 12 fold,full agonist,full agonist,10,100,100,0.93,,,,,,,,
"NCCCC[C@H](NC(=O)[C@@H]1CCCN1C(=O)[C@@H]1CSSC[C@H](NC(=O)CNC(=O)CNC(=O)CN)C(=O)N[C@@H](Cc2ccc(O)cc2)C(=O)N[C@@H](Cc2ccccc2)C(=O)N[C@@H](CCC(N)=O)C(=O)N[C@@H](CC(N)=O)C(=O)N1)C(=O)NCC(N)=O [Terlipressin, N^α-tryglycl-8-lysine-vasopressin] (HELM PEPTIDE1{G.G.G.C.Y.F.Q.N.C.P.K.G.[am]}$PEPTIDE1,PEPTIDE1,4:R3-9:R3$$$V2.0; bridges inferred)",approximately sixfold,,,partial agonist,full agonist,1230,48,66,148,about 600 fold,about 700 fold,1.9,about 120 fold,~700,9,about 66 fold,about 150 fold
vasopressin: vasopressin comparator in Bernadich et al rat vasopressor tests; probably AVP,,,,,,,,,,,,,,,614,,
